Data on eight compounds can be found in patent US20060270629A1, “Methanocarba cycloalkyl nucleoside analogues” (Govt of the U.S.A., represented by the Secretary, Dept of …, priority 2000, published 2006).

Where a name gives a salt, the structure may show the parent alone. Read-outs that look alike come from different tables or passages of the source.

Assay [1] concerns the target turkey erythrocyte P2Y1 receptors (Meleagris gallopavo, UniProt P49652). In words: PLC (inositol phosphate formation) assay in turkey erythrocyte membranes. The conditions noted are these: for agonist or antagonist character at P2Y1 receptors: PLC assay.
Procedure: Concentration-response curves were determined for each compound alone and in combination with 10 nM 2-MeSADP.
P2Y1 receptor promoted stimulation of inositol phosphate formation by adenine nucleotide analogues was measured in turkey erythrocyte membranes as previously described. […] Erythrocyte ghosts were prepared by rapid lysis in hypotonic buffer (5 mM sodium phosphate, pH 7.4, 5 mM MgCl2, 1 mM EGTA) as described. […] Assays (200 μL final volume) contained 1 μM GTPγS and the indicated concentrations of nucleotide analogues. Ghosts were incubated at 30° C. for 5 min, and total [^3H]inositol phosphates were quantitated by anion exchange chromatography as previously described.^7,36
Agonist potencies were calculated using a four-parameter logistic equation and the GraphPad software package (GraphPad, San Diego, Calif.).
A further assay has as its target T1, rat A1 receptors (Rattus norvegicus, UniProt P25099).
T1 sequence (P25099 1-326): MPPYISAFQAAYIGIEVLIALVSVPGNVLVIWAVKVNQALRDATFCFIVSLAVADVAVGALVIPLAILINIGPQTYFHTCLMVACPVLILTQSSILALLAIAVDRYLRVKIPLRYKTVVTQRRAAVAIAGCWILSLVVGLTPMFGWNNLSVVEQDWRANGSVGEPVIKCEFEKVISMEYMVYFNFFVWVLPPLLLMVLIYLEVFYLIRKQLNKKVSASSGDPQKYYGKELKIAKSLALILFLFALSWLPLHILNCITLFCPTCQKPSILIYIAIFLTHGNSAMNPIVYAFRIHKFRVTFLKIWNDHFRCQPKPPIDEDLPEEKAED
As to the kind of experiment: Radioligand binding at rat A1 adenosine receptors. The conditions noted are these: rat A1 receptors; read-out: K1 (nM), rA1.

Another assay concerns the target rat A2A receptors (Rattus norvegicus, UniProt P30543). As to the kind of experiment: Radioligand binding at rat A2A adenosine receptors. The conditions noted are these: for Ki: read-out: K1 (nM), rA2A.
The target in the next assay is T2, human A3 receptors (Homo sapiens, UniProt P0DMS8).
T2 sequence (P0DMS8 1-318): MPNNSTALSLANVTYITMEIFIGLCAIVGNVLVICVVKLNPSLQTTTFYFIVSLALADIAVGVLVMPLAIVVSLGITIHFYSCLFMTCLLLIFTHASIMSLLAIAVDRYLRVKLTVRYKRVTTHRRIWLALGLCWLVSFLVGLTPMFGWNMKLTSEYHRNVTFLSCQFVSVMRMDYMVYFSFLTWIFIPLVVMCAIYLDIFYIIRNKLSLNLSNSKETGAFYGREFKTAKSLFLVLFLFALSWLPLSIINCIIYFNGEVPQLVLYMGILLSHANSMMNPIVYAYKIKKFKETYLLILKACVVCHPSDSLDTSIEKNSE
As to the kind of experiment: A3 adenosine receptor binding using [125I]AB-MECA, transfected CHO cell membranes. The conditions noted are these: for Ki: human A3 receptors, read-out: K1 (nM), hA3.

A further assay addresses T3, cloned hA1AR (Homo sapiens, UniProt P30542).
T3 sequence (P30542 1-326): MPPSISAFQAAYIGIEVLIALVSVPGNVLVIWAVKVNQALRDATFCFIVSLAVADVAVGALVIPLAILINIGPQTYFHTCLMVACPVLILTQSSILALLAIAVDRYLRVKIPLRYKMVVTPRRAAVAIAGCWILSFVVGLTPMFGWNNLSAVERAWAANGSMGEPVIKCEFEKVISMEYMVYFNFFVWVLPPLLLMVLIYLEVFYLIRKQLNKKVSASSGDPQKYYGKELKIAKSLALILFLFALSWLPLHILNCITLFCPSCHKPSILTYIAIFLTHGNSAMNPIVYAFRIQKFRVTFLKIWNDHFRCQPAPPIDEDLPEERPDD
As to the kind of experiment: Stimulation of [35S]GTPγS binding, CHO cell membranes expressing cloned hA1AR. The conditions noted are these: for EC50: read-out: cloned hA1AR EC50, stimulation of basal [35S]GTPγS binding, n = 3. (In general: GTPγS is a poorly hydrolysed GTP analogue; its binding reports G protein activation.)

The target in a further assay is T4, cloned hA3AR (Homo sapiens, UniProt P0DMS8).
T4 sequence (P0DMS8 1-318): T2 sequence (P0DMS8 1-318)
As to the kind of experiment: Stimulation of [35S]GTPγS binding, CHO cell membranes expressing cloned hA3AR. The conditions noted are these: for EC50: read-out: cloned hA3AR EC50, stimulation of basal [35S]GTPγS binding, n = 3.

The next assay has as its target T5, rA1AR (Rattus norvegicus, UniProt P25099).
T5 construct: in rat cerebral cortical membranes containing the A1AR; from tissue; host or cells: rat cerebral cortical membranes
T5 sequence (P25099 1-326): T1 sequence (P25099 1-326)
In words: Stimulation of [35S]GTPγS binding, rat cerebral cortical membranes containing the A1AR. It is filed as biochemical. The conditions noted are these: read-out: rA1AR % Maximal Stimulation.

The mark [2] stands for this setting: IC50, antagonists, P2Y1 receptors.
Setting [3] is: IC50, μM, inhibition of the effect elicited by 10 nM 2-MeSADP.
[4] abbreviates: read-out: Antagonist Effect, % of maximal inhibition.

Chain of turkey erythrocyte P2Y1 receptors (P49652 whole entry): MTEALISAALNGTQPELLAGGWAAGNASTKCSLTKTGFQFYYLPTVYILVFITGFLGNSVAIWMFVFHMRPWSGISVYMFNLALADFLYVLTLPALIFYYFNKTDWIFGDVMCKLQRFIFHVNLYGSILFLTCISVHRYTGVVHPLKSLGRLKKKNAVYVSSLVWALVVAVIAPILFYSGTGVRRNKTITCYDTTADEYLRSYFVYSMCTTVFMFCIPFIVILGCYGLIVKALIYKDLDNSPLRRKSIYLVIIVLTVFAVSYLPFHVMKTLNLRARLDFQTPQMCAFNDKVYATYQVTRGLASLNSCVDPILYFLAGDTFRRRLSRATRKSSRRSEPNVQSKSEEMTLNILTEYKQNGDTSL
Chain of rat A2A receptors (P30543 whole entry): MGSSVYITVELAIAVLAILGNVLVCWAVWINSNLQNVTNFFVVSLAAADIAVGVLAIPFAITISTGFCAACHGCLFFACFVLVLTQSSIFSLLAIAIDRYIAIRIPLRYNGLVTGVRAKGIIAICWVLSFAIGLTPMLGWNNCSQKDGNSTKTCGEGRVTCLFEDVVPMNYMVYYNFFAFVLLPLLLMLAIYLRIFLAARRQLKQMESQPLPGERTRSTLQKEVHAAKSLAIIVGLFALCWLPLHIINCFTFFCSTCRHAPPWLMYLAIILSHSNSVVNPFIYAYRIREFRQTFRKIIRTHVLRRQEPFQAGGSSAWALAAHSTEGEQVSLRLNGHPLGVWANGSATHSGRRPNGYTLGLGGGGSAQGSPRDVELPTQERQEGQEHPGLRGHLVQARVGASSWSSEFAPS
Procedure for cloned hA1AR: (§1) CHO cells stably transfected with either human A1 or A3 receptors (gift of Dr. Gary Stiles and Dr. Mark Olah, Duke University Medical Center) were cultured as monolayers in medium supplemented with 10% fetal bovine serum. […] The final pellets were resuspended in 50 mM Tris.HCl buffer, pH 7.4, containing 10 mM MgCl2 and 0.1 mM EDTA and stored at −70° C.
(§2) After transferring the filters into a vial containing 3 ml of scintillation cocktail, the radioactivity was determined in a scintillation counter.
(§3) Binding of [^35S]GTP-γ-S was studied in membranes prepared from CHO cells stably expressing human A1 or A3 receptors (Table 2).
Procedure for cloned hA3AR: as §1, §2, §3
Procedure for human A3 receptors: The final pellets were resuspended in 50 mM Tris.HCl buffer, pH 7.4, containing 10 mM MgCl2 and 0.1 mM EDTA and stored at -70° C. […] The total volume of the reaction mixture was 125 μl. Bound and free ligands were separated by rapid filtration of the reaction mixture through Whatman GF/B glass filters. The filters were immediately washed with two 5 ml-portions of ice-cold 50 mM Tris.HCl buffer (pH 7.4). The radioactivity bound to the filters was determined in a Beckman gamma counter.
Procedure for rA1AR: as §2
Procedure for rat A1 receptors: (§4) Bound and free ligands were separated by rapid filtration of the reaction mixture through Whatman GF/B glass filters. The filters were immediately washed with two 5 ml-portions of ice-cold 50 mM Tris.HCl buffer (pH 7.4). The radioactivity bound to the filters was determined in a Beckman gamma counter.
Procedure for rat A2A receptors: as §4

On to `Nc1ncnc2c1ncn2[C@@]12C[C@H](OP(=O)(O)O)[C@@H](COP(=O)(O)O)[C@@H]1C2` [Compound 5, (1S,3S,4R,5S)-4-[(phosphato)methyl]-1-(6-aminopurin-9-yl)bicyclo[3.1.0]-hexane-3-phosphate tetraammonium salt], for which, in assay [1], the concentration giving a half-maximal response (EC50) turned out to be 13300 nM and the “agonist or antagonist character at P2Y1 receptors” value (“agonist or antagonist character” below) is given as “agonist”. Besides, the “IC50, μM” value in assay [1] (inhibition of the effect elicited by 10 nM 2-MeSADP) is “small decrease”. The inhibition at 100 µM in assay [1] (read-out: Antagonist Effect, % inhibition at 100 μM) was found to be 34%. Also, in assay [1] (relative to maximal effective concentration of 2-MeSADP, NE = no effect at 100 μM), the “Agonist Effect, % of maximal increase” value is given as 41 ± 13%.

`CNc1nc(Cl)nc2c1ncn2[C@H]1C[C@H](OP(=O)(O)O)C2(COP(=O)(O)O)C[C@H]12` (stereo partly shown) [Compound 4c, (N)-Methanocarba-N^6-methyl-2-chloro-2′-deoxyadenosine-3′,5′-bis(diammonium phosphate)]: the figures for the IC50 in assay [1] (setting [2]) and in assay [1] (setting [3]) were 0.053 µM and 0.0516 ± 0.0008 µM, respectively. Also, the “agonist or antagonist character” value in assay [1] was “antagonists”. The inhibition at 100 µM in assay [1] (setting [4]) is 100%.

For the compound `OC[C@H]1C[C@@H](n2cnc3c(NCc4cccc(I)c4)ncnc32)[C@@H](O)[C@@H]1O` [Compound 7b, (1′R, 2′R,3′R,4′R)-2,3-(dihydroxy)-4-(hydroxymethyl)-1-(6-(3-idobenzylamino)purine-9-yl)cyclopentane], the Ki on rat A1 receptors was 25900 nM; at human A3 receptors, 1960 ± 370 nM. The “% displacement, rA2A” value on rat A2A receptors (at 100 μM) was under 10% 100 μM. In addition, on human A3 receptors (ratio of Ki at rat A1 to Ki at A3 (human, or rat where marked (r))), the A1/A3 amounted to 13. Besides, the “cloned hA1AR % Stimulation at 10 μM” value on cloned hA1AR ([35S]GTPγS binding, at 10 μM) is 5 ± 2% at 10 μM. Besides, the half-maximal effective concentration (EC50) on cloned hA1AR and at cloned hA3AR was over 10000 nM in each case. Besides, the “cloned hA3AR % Stimulation at 10 μM” value on cloned hA3AR ([35S]GTPγS binding, at 10 μM) was found to be 15 ± 5% at 10 μM.

As to `CNc1nc(Cl)nc2c1ncn2[C@H]1C[C@H](OP(=O)(O)O)[C@]2(COP(=O)(O)O)C[C@H]12` [Compound 4c, (N)-Methanocarba-N^6-methyl-2-chloro-2′-deoxyadenosine-3′,5′-bis(diammonium phosphate)], the values for the Ki at rat A1 receptors and at rat A2A receptors were 8730 ± 370 nM and 25400 nM, respectively.

`CNc1ncnc2c1ncn2[C@H]1C[C@H](OP(=O)(O)O)C2(COP(=O)(O)O)C[C@H]12` (stereo partly drawn) [Compound 4b, (1R,2S,4S,5S)-1-[(phosphato)methyl]-4-(6-methylaminopurin-9-yl)bicyclo[[3.1.0.]-hexane-2-phosphatetetraammoniun salt]: the values for the IC50 in assay [1] (setting [2]) and in assay [1] (setting [3]) were 0.276 µM and 0.157 ± 0.06 µM, respectively. Also, the “agonist or antagonist character” value in assay [1] is reported as “antagonists”. The inhibition at 100 µM in assay [1] (setting [4]) turned out to be 100%.

Turning to `CNc1ncnc2c1ncn2[C@H]1C[C@H](OP(=O)(O)O)[C@]2(COP(=O)(O)O)C[C@H]12` [Compound 4b, (1R,2S,4S,5S)-1-[(phosphato)methyl]-4-(6-methylaminopurin-9-yl)bicyclo[[3.1.0.]-hexane-2-phosphatetetraammoniun salt], the Ki on rat A1 receptors is 141 ± 22 nM; on rat A2A receptors, 732 ± 207 nM; on human A3 receptors, 2.24 ± 1.45 nM.

`OC[C@H]1O[C@@H](n2cnc3c(NCc4cccc(I)c4)ncnc32)[C@H](O)[C@@H]1O` [Compound 7a, reference compound]: the results for the Emax on rA1AR and on cloned hA1AR (read-out: cloned hA1AR % Maximal Stimulation) were 95 ± 4% and 91 ± 1%, respectively. In addition, on cloned hA1AR, the EC50 came out at 43.1 ± 10.4 nM. Besides, the “agonist efficacy at human A3 receptors” value at cloned hA3AR ([35S]GTPγS binding) is listed as “full A3 agonists”. Also, the “cloned hA3AR % Maximal Stimulation” value at cloned hA3AR ([35S]GTPγS binding) turned out to be 100%.

As to `OC[C@H]1O[C@@H](n2cnc3c(NC4CCCC4)ncnc32)[C@H](O)[C@@H]1O` [Compound 6a, CPA, reference compound], on human A3 receptors, the Ki was 274 ± 20 nM. Moreover, at cloned hA3AR ([35S]GTPγS binding), the “cloned hA3AR % Maximal Stimulation” value was determined as 100%. The EC50 on cloned hA3AR turned out to be 7980 ± 60 nM.

The term EC50 denotes the concentration at which the effect is half-maximal. Broadly, the inhibition is the relative decrease from the control value, in per cent. For orientation: IC50 means the concentration that gives 50% inhibition.
